Experimental data as given in US5430157A, “Reduced phenanthrenes” (Eli Lilly and Company, priority 1993, dated 1995).

Molecular target: T1, Type II 5α-reductase from human prostate (Homo sapiens, UniProt P31213)
T1 construct: Human prostate tissue from prostate surgeries was obtained immediately after surgery, frozen on dry ice; from tissue; host or cells: human prostate tissue from surgery; homogenate, 100,000 x g pellet resuspended
T1 sequence (P31213 1-254): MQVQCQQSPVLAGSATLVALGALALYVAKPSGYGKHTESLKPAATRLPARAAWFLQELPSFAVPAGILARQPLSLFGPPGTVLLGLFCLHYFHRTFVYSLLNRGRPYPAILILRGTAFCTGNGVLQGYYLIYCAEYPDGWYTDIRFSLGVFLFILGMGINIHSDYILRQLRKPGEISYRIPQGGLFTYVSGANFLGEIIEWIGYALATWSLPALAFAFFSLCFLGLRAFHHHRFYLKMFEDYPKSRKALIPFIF
Assay: Human Type II steroid 5α-reductase assay (conversion of [3H]-testosterone to DHT)
Type: biochemical
Conditions: human prostate enzyme preparation, 50 nM [3H]-testosterone, pH 5.5, 30 min at 25°, compared to control reaction mixtures; read-out: 50% inhibitory concentration
Procedure: Methodology of Human Type II Steroid 5α-Reductase Assays
Preparation of Type II 5α-Reductase from Human Prostate:
Human prostate tissue from prostate surgeries was obtained immediately after surgery, frozen on dry ice and stored at -80° C. The tissue was frozen with liquid nitrogen and pulverized to powder. The powder was homogenized in ice-cold buffer (20 mM sodium phosphate, pH 6.5) using a Brinkmann Polvtron (Westbury, N.Y.) with a PTA 10-S probe and a setting of 7. The homogenization procedure consisted of four 15 second pulses. Connective tissue was cleared from the probe with forceps between pulses. […]
This enzyme assay is based on the conversion of [^3 H]-testosterone to [^3 H]-5α-dihydrotestosterone (DHT) and other 5α-reduced metabolites. […] Essentially no androsterone was detected. […]
The [^3 H]-testosterone substrate and its metabolites were separated by chromatography using a C-18 reversed phase column (Beckman Ultrasphere 5 μm spherical 80A pore, part no. 235329, 4.6 mm i.d..div.25 mm length) with an isocratic mobile phase (46 water: 46 methanol: 8 tetrahydrofuran by volume). […] A 400 μl aliquot was injected onto the column and radioactivity was determined using a Beckman 171 in-line flow radioisotope detector in conjunction with Rainin Dynamax™ software and a Macintosh computer. […]

IC50 [nM]	SMILES
150	C[C@]12CCC(C(=O)O)=CC1=CCc1cc(Cl)ccc12 [Example 1, (-)-2-Chloro-4b-methyl-4b,5,6,10-tetrahydrophenanthrene-7-carboxylic acid]
600	C[C@]12CCC(c3nnn[nH]3)=CC1=CCc1cc(Cl)ccc12 [Example 2, (-)-2-Chloro-4b-methyl-4b,5,6,10-tetrahydrophenanthrene-7-(1-tetrazole)]
